Data from article PMC11595864, “Design, Synthesis, and Evaluation of Novel Thiazole-Containing Algicides Inspired by Bacillamide A” (Marine Drugs, 2024).
In brackets after ≈: the same amount, converted by molar mass.

How the values were obtained:
Salmonella choleraesuis = test system: Salmonella choleraesuis; parameters: method as in PMID 32483303; conditions: cited from earlier work
Alternaria sp. = test system: Alternaria sp.; parameters: method as in PMID 32483303; conditions: cited from earlier work
A. pacificum [1] = experiment: Growth-inhibition rate measurement at 50 mg/L, 24 h; assay type: cell-based, Alexandrium pacificum; conditions: Alexandrium pacificum, read-out: inhibition rate against A. pacificum
Description: (§1) P. minimum, A. pacificum, and S. costatum were purchased from Guangyu Biological Technology Co., Ltd. (Shanghai, China). The algae strain was cultured in F/2 medium ((12 h light: 12 h dark cycle), 20 ± 1 °C, 70 μmol m^−2 s^−1). Purchased algae were transferred to sterile conical flasks for culture; after the algae proliferation was stabilized, the expanded culture was next carried out following standard conditions.
(§2) The stock solutions of bacillamide A and different BDs were prepared in dimethyl sulfoxide (DMSO) with the requisition amount. […] The controls received the same volume of DMSO. The inhibitory activities of bacillamide A, different BDs, and positive controls were screened by 96 well microtiter plates at different concentrations. Inhibition ratios (IRs) of cupric sulfate (50 mg/L, positive control), bacillamide A (50 mg/L), and BDs (50 mg/L) were calculated on algae using Equation (1). (1) IR=Cc0-Cex/Cc0×100%
(§3) The CC0 and Cex, respectively, represent the algal densities of the control and experimental groups.

Vibrio cholerae = test system: Vibrio cholerae; parameters: method as in PMID 32483303; conditions: cited from earlier work
P. minimum [2] = experiment: MDA level (thiobarbituric acid assay kit); assay type: cell-based, Prorocentrum minimum; conditions: 10 mg/L, 72 h, versus control (DMSO)
Description: (§4) P. minimum, S. costatum, and A. pacificum cells were cultured in F/2 medium. All flasks were cultivated under 12 h of light: 12 h of dark and 70 μmol m^−2 s^−1 at 20 ± 1 °C. […] Finally, the algal cells were collected and diluted in 6 mL of phosphate buffer (pH = 7.8). A small amount of quartz sand was added into the algal cells under ice bath. The obtained homogenate was next poured into a centrifuge tube and centrifuged at 5000 r/min for 25 min at 4 °C. The obtained supernatant was placed in the refrigerator at 4 °C for the next step experiment.
(§5) The malondialdehyde (MDA) assay kit was purchased from Lvyuandade Biochemical Co, Ltd., Beijing, China. The MDA parameter was monitored according to the procedure provided by the manufacturer. A total of 1 mL of algal extract was mixed with thiobarbituric acid solution (2 mL, 0.6%). The solution was sealed and kept in a boiling water bath for 15 min, followed by being cooled and centrifuged at 4500 r/min for 10 min. The absorbance values of collected supernatant were measured and calculated by the Formula (3) at 600 nm, 532 nm, and 450 nm:MDA content (nmol∙mgprot^−1) = 6.45 × (A532 − A600) − 0.56 × A450(3)

[3] = test system: other microalgae (e.g., diatoms, cyanobacteria, green algae); parameters: method as in doi:10.1016/j.tetlet.2003.08.115, PMID 17454826; conditions: cited from earlier work
A. pacificum [4] = experiment: Algicidal activity assay, EC50; assay type: cell-based, Alexandrium pacificum; conditions: for EC50: Alexandrium pacificum
Description: as §1
(§6) Copper sulfate and Diuron were used as the positive controls. EC50 values were calculated according to the equation of the quantity–effect relationship in Equation (2) using the Hill model of Graph Pad Prism software (8.0.2). (2) Y=Bottom+(Top-Bottom)/1+10^(Log EC50-X)×Hill Slope
(§7) The X and Y values represent the concentration (mg/L) and response values of the control and experimental groups, respectively. The Top, Bottom, and Hill Slope represent the maximum response, minimum response, and the curve slope, respectively. The EC50 represents half of the maximum effective concentration.

S. costatum [5] = experiment: MDA level (thiobarbituric acid assay kit); assay type: cell-based, Skeletonema costatum; conditions: 10 mg/L, 72 h, versus control (DMSO)
Description: as §4, §5

S. costatum [6] = experiment: Algicidal activity assay, EC50; assay type: cell-based, Skeletonema costatum; conditions: Mean ± SD, n = 3; for EC50: Skeletonema costatum, read-out: EC50 S. costatum
Description: as §1, §6, §7

zebrafish = experiment: Zebrafish acute toxicity assay; assay type: in vivo
Description: Zebrafish acute toxicity of bacillamide A and synthesized BDs were evaluated at 0.1 mg/L, 1 mg/L, and 10 mg/L, respectively. Diuron and CuSO4 were used as positive controls. The commercial zebrafish (body length > 3.0 cm) were domesticated in aerated tap water for 24 h, fed once daily for seven consecutive days, and stopped being fed before the experiment.
4. Acute toxicity table S1.
Compound Concentration Survival percent Acute
aAccording to the Guide for Environmental Safety Assessment of Chemical Pesticides
4 groups and treated with different compounds for 96 h.

PSII in P. minimum = experiment: Quantum yield Fv/Fm of PSII; assay type: cell-based, Prorocentrum minimum; conditions: 10 mg/L, 72 h, versus negative control
Description: as §4
(§8) Fv/Fm values were determined by using AquaPen handheld algae fluorescence meter (Nanjing Mingao Instrument Co., Ltd., Nanjing, China). The algae cells were darkened for 30 min and Fv/Fm values were measured.

P. minimum [7] = experiment: Algicidal activity assay, EC50; assay type: cell-based, Prorocentrum minimum; conditions: for EC50: Prorocentrum minimum, read-out: EC50 P. minimum
Description: as §1, §6, §7

PSII in S. costatum = experiment: Quantum yield Fv/Fm of PSII; assay type: cell-based, Skeletonema costatum; conditions: 10 mg/L, 72 h, versus negative control
Description: as §4, §8

S. costatum [8] = experiment: ROS level (DCFH-DA fluorescent probe assay); assay type: cell-based, Skeletonema costatum; conditions: 10 mg/L, 72 h
Description: as §4
(§9) The reactive oxygen species (ROS) assay kit was purchased from SolarBio Co., Ltd., Beijing, China. The 2′,7′-dichlorodihydrofluorescein diacetate (DCFH-DA) could be oxidized by reactive oxygen or nitrogen species (ROS/RNS) to generate high fluorescent 2′,7′-dichlorofluoroscein (DCF). DCF could be detected by Cyto-FLEX flow cytometry.

S. costatum [9] = experiment: Observation of cellular morphology (optical microscope, SEM); assay type: cell-based, Skeletonema costatum; conditions: 10 mg/L, 4 h
Description: (§10) There were morphological changes of algae cells treated by bacillamide A, BDs, and the positive control (CuSO4). […] Cell samples were centrifuged at 12,000 rpm for 10 min, collected, fixed, gradient-dehydrated, and freeze-dried after gold coating following the reported procedure. The SEM analyses were performed by scanning electron microscopy (SEM, JSM-7900F, […], Tokyo, Japan).

P. minimum [10] = experiment: as above; assay type: cell-based, Prorocentrum minimum; conditions: 10 mg/L, 4 h
Description: as §10

A. pacificum [11] = experiment: Observation of cellular morphology (optical microscope); assay type: cell-based, Alexandrium pacificum; conditions: 10 mg/L, 4 h
P. minimum [12] = experiment: ROS level (DCFH-DA fluorescent probe assay); assay type: cell-based, Prorocentrum minimum; conditions: 10 mg/L, 72 h
Description: as §4, §9

P. minimum [13] = experiment: Growth-inhibition rate measurement at 50 mg/L, 24 h; assay type: cell-based, Prorocentrum minimum; conditions: Prorocentrum minimum, read-out: inhibition rate against P. minimum
Description: as §1, §2, §3

S. costatum [14] = experiment: as above; assay type: cell-based, Skeletonema costatum
Description: as §1, §2, §3

| SMILES | inhibition at 50 µg/mL (A. pacificum [1]) [%] | increase of MDA levels in P. minimum (P. minimum [2]) [fold] | EC50 (A. pacificum [4]; Mean ± SD, n = 3) [µg/mL] | increase of MDA levels in S. costatum (S. costatum [5]) [fold] | EC50 (S. costatum [6]) [µg/mL] | Survival percent (zebrafish; zebrafish, 0.1 mg/L, 0h) | Survival percent (zebrafish; zebrafish, 0.1 mg/L, 24h) | Survival percent (zebrafish; zebrafish, 0.1 mg/L, 48h) | Survival percent (zebrafish; zebrafish, 0.1 mg/L, 72h) | Survival percent (zebrafish; zebrafish, 0.1 mg/L, 96h) | Survival percent (zebrafish; zebrafish, 1 mg/L, 0h) | Survival percent (zebrafish; zebrafish, 1 mg/L, 24h) | Survival percent (zebrafish; zebrafish, 1 mg/L, 48h) | Survival percent (zebrafish; zebrafish, 1 mg/L, 72h) | Survival percent (zebrafish; zebrafish, 1 mg/L, 96h) | Survival percent (zebrafish; zebrafish, 10 mg/L, 0h) | Survival percent (zebrafish; zebrafish, 10 mg/L, 24h) | Survival percent (zebrafish; zebrafish, 10 mg/L, 48h) | Survival percent (zebrafish; zebrafish, 10 mg/L, 72h) | Survival percent (zebrafish; zebrafish, 10 mg/L, 96h) | other results |
| --- | --- | --- | --- | --- | --- | --- | --- | --- | --- | --- | --- | --- | --- | --- | --- | --- | --- | --- | --- | --- | --- |
| CC(=O)c1nc(C(=O)NCCc2c[nH]c3ccccc23)cs1 [bacillamide A] | 55.3 | 2.0 | 2.17 ± 0.31 (≈ 6.92 µM) | 2.6 | 2.51 ± 0.09 (≈ 8.01 µM) | 100 | 100 | 100 | 100 | 100 | 100 | 100 | 87 | 83 | 83 | 100 | 100 | 100 | 100 | 100 | antibacterial activity (Salmonella choleraesuis): moderate antibacterial activity; antifungal activity (Alternaria sp.): slight antifungal activity; antibacterial activity (Vibrio cholerae): moderate antibacterial activity; algicidal activities against other microalgae [3]: did not display algicidal activities; Acute toxicity (zebrafish; zebrafish, class by GB/T31270.12, LC50 (96 h)): low (LC50 (96 h) > 10 mg/L, low toxicity); decrease of Fv/Fm of PSII in P. minimum (PSII in P. minimum): 2 fold; EC50 (P. minimum [7]; Mean ± SD, n = 3): 3.93 ± 0.28 µg/mL (≈ 12.5 µM); decrease of quantum yield Fv/Fm of PSII in S. costatum (PSII in S. costatum): 4 fold |
| CCCCc1nc(C(=O)NCCc2c[nH]c3ccccc23)cs1 [Compound 6j] | 70 to 95 | 2.3 | 0.47 ± 0.25 (≈ 1.44 µM) | 2.2 | 0.3 ± 0.02 (≈ 0.916 µM) | 100 | 100 | 100 | 100 | 100 | 100 | 100 | 100 | 80 | 80 | 100 | 80 | 0 | 0 | 0 | increase of ROS levels in S. costatum (S. costatum [8]): 3 fold; cell morphology of S. costatum, micrographs (S. costatum [9]): broken or damaged or both; fold more potent than natural bacillamide A, Diuron, and CuSO4 (A. pacificum [4]; from EC50 against A. pacificum): 3–5 fold; cell morphology of P. minimum, micrographs (P. minimum [10]): broken or damaged or both; cell morphology of A. pacificum, micrographs (A. pacificum [11]): broken or damaged or both; increase of ROS levels in P. minimum (P. minimum [12]): 5.4 fold; mortality in zebrafish (zebrafish; 10 mg/L, treatment for more than 48 h): 100%; decrease of Fv/Fm of PSII in P. minimum (PSII in P. minimum): 3 fold; EC50 (P. minimum [7]; Mean ± SD, n = 3): 1 ± 0.11 µg/mL (≈ 3.05 µM); fold more potent than natural bacillamide A, Diuron, and CuSO4 (P. minimum [7]; from EC50 against P. minimum): 3–5 fold; decrease of quantum yield Fv/Fm of PSII in S. costatum (PSII in S. costatum): 27 fold; inhibition at 50 µg/mL (P. minimum [13]): 71.9%; inhibition rate against S. costatum (S. costatum [14]): 81.7%; inhibition at 50 µg/mL (S. costatum [14]; Skeletonema costatum, read-out: inhibition rate against S. costatum): > 70% |
| O=S(=O)([O-])[O-].[Cu+2] [CuSO4, cupric sulfate anhydrous, reference compound] | – | – | – | – | – | 100 | 100 | 80 | 73 | 73 | 100 | 50 | 50 | 43 | 43 | 100 | 0 | 0 | 0 | 0 | increase of ROS levels in S. costatum (S. costatum [8]): 7.7 fold; EC50 A. pacificum (A. pacificum [4]; Mean ± SD, n = 3): 2.34 ± 0.06 µg/mL; EC50 S. costatum (S. costatum [6]): 3.12 ± 0.21 µg/mL; increase of ROS levels in P. minimum (P. minimum [12]): 9.6 fold; EC50 P. minimum (P. minimum [7]; Mean ± SD, n = 3): 3.61 ± 0.32 µg/mL |
